Results reported in patent US20230414732A1, “COMPOSITIONS OF EMBEDDED EPITOPE RANDOM PEPTIDES (EERP) FOR TREATMENT OF IMMUNE-MEDIATED CONDITIONS, AND METHODS OF USE” (PALENA THERAPEUTICS, INC., priority 2020, published 2023).

How the values were obtained:
[1] = test system: experimental allergic encephalomyelitis (EAE); conditions: mouse model for multiple sclerosis; cited from earlier work
relapsing forms of MS = conditions: cited from earlier work
[2] = test system: LPS-stimulated human monocytic cell line THP-1; experiment: Inhibition of pro-inflammatory cytokine secretion by LPS-stimulated THP-1 cells (ELISA); format: cell-based; conditions: 1.5 hr pre-incubation, LPS 1 μg/mL 24 hr
Method: Cell-based assays. Human monocytic cell line THP-1 (ATCC, Manassas, VA) was cultured in RPMI media supplemented with 10% fetal bovine serum (FBS) and antibiotics penicillin/streptomycin in a 37° C. 5% CO 2 incubator. Cells were plated at 0.25×10^6 cells/well in a 24-well cell culture plate and pre-incubated for 1.5 hr with Glatopa, PT-001 or PT-002 at the final concentration 0.1 μg/mL or 10 μg/mL each, followed by addition of lipopolysaccharide (LPS) at the final concentration of 1 μg/mL and incubation for 24 hr in a 37° C. 5% CO2 incubator. Plates were centrifuged and supernatants (100 μL) were tested for levels of pro-inflammatory cytokines IL-1β, IL-6 and TNF-α using commercial ELISA kits (R&D System for IL-1β, BioLegend for IL-6 and TNF-α). […] Percent inhibition is calculated as 100-(cytokine concentration in presence of inhibitor/cytokine concentration without inhibitor*100).

[3] = test system: MOG-induced EAE in C57B1/6 female mice; experiment: Prophylactic treatment of MOG35-55-induced EAE, a mouse model of MS; format: in vivo; conditions: for Incidence of EAE: 500 μg single dose co-administered with MOG 35-55 in CFA, scored Day 7 to Day 28
Description: FIG. 2 is a graph showing prophylactic treatment of MOG-induced EAE in mice (an animal model for multiple sclerosis (MS)) using an EERP according to the present invention. EAE was induced in C57B1/6 female mice at 10 weeks of age by MOG35-55 (Control; depicted as diamonds) and treated prophylactically by co-administration of Glatopa (depicted as triangles), PT-001 (YFAK random copolymer, depicted as open squares), or PT-002 (EERP consisting of linear random polypeptide YFAK with the peptide AYKAAA embedded in it; depicted as cross) at 500 μg/dose each. Mice (12 per treatment group) were monitored for signs of disease for 28 days post immunization. Numbers on the ordinate represent mean clinical score of clinical symptoms monitored for the days shown on the abscissa.
FIG. 3 is a graph showing prophylactic treatment of MOG-induced EAE in mice using two different doses of an EERP according to the present invention. […] Mice (10 per treatment group) were monitored for signs of disease for 28 days post immunization. Numbers on the ordinate represent mean clinical score of clinical symptoms monitored for the days shown on the abscissa.
The EERP of the invention is further tested in vivo in a prophylactic model of MS, EAE, which is induced in female mice of C57B1/6J strain by MOG 35-55 encephalitogenic peptide co-administered with the EERP in Complete Freund's Adjuvant. […] Disease severity is based on clinical observations and is assessed on the scale from 0 to 5. […]
Prophylactic treatment of EAE, a mouse model of MS. […] Mice (12 per treatment group) were monitored daily in a blind fashion starting from Day 7 for signs of disease for 28 days post immunization. […]
Prophylactic treatment of EAE, a mouse model of MS, by 2 different doses of EERP. […] Mice (10 per treatment group) were monitored daily in a blind fashion starting from Day 7 for signs of disease for 28 days post immunization. […]

Molecule | Suppression of EAE [1] | Reduction in relapses (relapsing forms of MS) | Percent inhibition (%) IL-1b ([2]; 0.1 μg/mL compound) | Percent inhibition (%) IL-6 ([2]; 0.1 μg/mL compound) | Percent inhibition (%) TNF-a ([2]; 0.1 μg/mL compound) | Percent inhibition (%) IL-1b ([2]; 10 μg/mL compound) | Percent inhibition (%) IL-6 ([2]; 10 μg/mL compound) | Percent inhibition (%) TNF-a ([2]; 10 μg/mL compound) | Incidence of EAE [3] | Signs of disease (clinical score) ([3]; Example 2: 500 μg/dose, single dose in immunization emulsion, subcutaneous, 28 days post immunization)
poly (Y, E, A, K) [Cop 1] | capable of suppressing experimental allergic encephalomyelitis | about 30% | – | – | – | – | – | – | – | –
glatiramer acetate [Glatopa] | – | – | 22% | −10% | −162% | 42% | −21% | −37% | 67% | –
C[N+]1(C)CCC(OC(=O)C(O)(c2ccccc2)C2CCCC2)C1 (centres unmarked) [PT-001] | – | – | 21% | −8% | −5% | 77% | 84% | 34% | 0% | did not exhibit any signs of disease
